Literature values in US5314690A, “Method and composition for treating IgE-mediated allergies” (Northwestern University, priority 1992, dated 1994).
Read-outs that look alike come from different tables or passages of the source. Where no end group is shown, it is not given here.

Columns and labels:
immune response [1] = conditions: reported by Siemion et al.; for Effect on the immune response at low doses: low doses (one dose)
immune response [2] = conditions: reported by Siemion et al.
[3] = listed as N-terminal tetrapeptide
[4] = listed as C-terminal pentapeptide

| Substance | Effect on the immune response at higher doses (immune response [1]) | Effect on the immune response at higher doses (immune response [1]; [3]) | Effect on the immune response at low doses (immune response [1]) | Effect on the immune response at low doses (immune response [1]; [3]) | Effect on the immune response in vivo (immune response [1]) | Effect on the immune response in vivo (immune response [1]; [4]) | Effect on the immune response in vitro (immune response [2]) | Effect on the immune response in vitro (immune response [2]; [4]) |
| --- | --- | --- | --- | --- | --- | --- | --- | --- |
| Gly-Pro-Arg-Pro (GPRP) [SP^1-4, No. 5] | slightly stimulated | stimulatory at a higher dose | only moderately suppressed the immune response | suppressive at one dose |  |  |  |  |
| Phe-Phe-Gly-Leu-Met-NH2 (FFGLM-NH2) [SP^7-11, No. 2] |  |  |  |  | distinct immuno-suppression in vivo | immunosuppressant | suppressed the immune response in vitro | immunosuppressant |
